Measured values from patent publication US4324728A, “Compound nanaomycin A and derivatives thereof and a process for producing the same” (The Kitasato Institute, priority 1976, dated 1982).
In brackets after ≈: the same amount, converted by molar mass.

Assays:
[1] = test system: Staphylococcus aureus FDA 209P; test: Minimal inhibitory concentration (agar); format: cell-based; conditions: FDA209P, 48 h, nutrient agar, pH 7.0, 2 days, 37° C.
[2] = test system: Bacillus subtilis PCI 219; test: Minimal inhibitory concentration (agar); format: cell-based; conditions: Bacillus subtilis, PCI219, 48 h, pH 7, nutrient agar, pH 7.0, 2 days, 37° C.; read-out: MIC
Protocol: (§1) Medium N nutrient agar (pH 7.0, 2 days, 37° C.)
(§2) MIC Minimal inhibitory concentration
(§3) N nutrient agar (pH 7.0, 2 days, 37° C.)

[3] = test system: Escherichia coli NIHJ (JC-2); test: Minimal inhibitory concentration (agar); format: cell-based; conditions: 48 h, pH 7, nutrient agar, pH 7.0, 2 days, 37° C.
Protocol: as §1, §2, §3

Sarcina lutea PCI 1001 = test: Minimal inhibitory concentration (agar); format: cell-based; conditions: Micrococcus luteus, PCI1001, 48 h, pH 7, nutrient agar, pH 7.0, 2 days, 37° C.; read-out: MIC
Protocol: as §1, §2, §3

[4] = test system: Staphylococcus aureus FDA 209P (JC-1); test: Minimal inhibitory concentration (agar); format: cell-based; conditions: FDA209P, 48 h, nutrient agar, pH 7.0, 2 days, 37° C.
Protocol: as §1, §2, §3

Salmonella typhimurium = test: Minimal inhibitory concentration (agar); format: cell-based; conditions: Salmonella enterica, 48 h, nutrient agar, pH 7.0, 2 days, 37° C.
Candida albicans = test: Minimal inhibitory concentration (agar); format: cell-based; conditions: Candida albicans, 96 h, pH 6.4, potato agar, pH 6.4, 4 days, 27° C.; read-out: MIC
Protocol: (§4) P potato agar (pH 6.4, 4 days, 27° C.)
as §2
(§5) Minimal inhibitory concentration was assayed by agar dilution method
(§6) (potato agar, pH 6.4, 27° C., 4 days).

Trichophyton rubrum = test: Minimal inhibitory concentration (agar); format: cell-based; conditions: Trichophyton rubrum, 96 h, pH 6.4, potato agar, pH 6.4, 4 days, 27° C.; read-out: MIC
Protocol: as §4, §2, §5, §6

Trichophyton schoenleini = test: Minimal inhibitory concentration (agar); format: cell-based; conditions: Trichophyton, 96 h, pH 6.4, potato agar, pH 6.4, 4 days, 27° C.; read-out: MIC
Protocol: as §4, §2, §5, §6

Saccharomyces sake = test: Minimal inhibitory concentration (agar); format: cell-based; conditions: Saccharomyces, 96 h; potato agar, pH 6.4, 4 days, 27° C.; read-out: MIC
[5] = test system: Aspergillus niger ATCC 6275; test: Minimal inhibitory concentration (agar); format: cell-based; conditions: ATCC6275, 96 h, potato agar, pH 6.4, 4 days, 27° C., read-out: MIC
Piricularia oryzae = test: microbe, parasite or virus in culture; format: cell-based; conditions: 96 h, pH 6.4, potato agar, pH 6.4, 4 days, 27° C.
Microsporum gypseum 704 = test: Minimal inhibitory concentration (agar); format: cell-based; conditions: Nannizzia gypsea, 704, 96 h; potato agar, pH 6.4, 4 days, 27° C.
Trichophyton asteroides = test: Minimal inhibitory concentration (agar); format: cell-based; conditions: Trichophyton, 96 h; potato agar, pH 6.4, 4 days, 27° C.; read-out: MIC
Trichophyton ferrugineum = test: Minimal inhibitory concentration (agar); format: cell-based; conditions: Microsporum ferrugineum, 96 h; potato agar, pH 6.4, 4 days, 27° C.; read-out: MIC
[6] = test system: Trichophyton interdigitale; test: Minimal inhibitory concentration (agar); format: cell-based; conditions: Trichophyton interdigitale, 96 h; potato agar, pH 6.4, 4 days, 27° C.; read-out: MIC
[7] = test system: Trichophyton mentagrophytes; test: Minimal inhibitory concentration (agar); format: cell-based; conditions: 96 h, pH 6.4, potato agar, pH 6.4, 4 days, 27° C.
Trichophyton pedis 804 = test: Minimal inhibitory concentration (agar); format: cell-based; conditions: Trichophyton pedis, 804, 96 h, pH 6.4
Trichophyton purpureum = test: Minimal inhibitory concentration (agar); format: cell-based; conditions: 96 h, pH 6.4
Trichophyton roseum = test: Minimal inhibitory concentration (agar); format: cell-based; conditions: Trichophyton, 96 h, pH 6.4, potato agar, pH 6.4, 4 days, 27° C.; read-out: MIC
Trichophyton violaceum = test: Minimal inhibitory concentration (agar); format: cell-based; conditions: Trichophyton violaceum, 96 h; potato agar, pH 6.4, 4 days, 27° C.; read-out: MIC
[8] = test system: Mycobacterium smegmatis ATCC 607; test: Minimal inhibitory concentration (agar); format: cell-based; conditions: Mycolicibacterium smegmatis, ATCC607, 48 h; nutrient agar, pH 7.0, 2 days, 37° C.
[9] = test system: Aspergillus fumigatus IAM 2162; test: Minimal inhibitory concentration (agar); format: cell-based; conditions: IAM2162, 96 h, potato agar, pH 6.4, 4 days, 27° C.
Protocol: | P potato agar (pH 6.4, 4 days, 27° C.)

[10] = test system: Aerobacter aerogenes IAM 1183; test: Minimal inhibitory concentration (agar); format: cell-based; conditions: Klebsiella aerogenes, IAM1183, 48 h; nutrient agar, pH 7.0, 2 days, 37° C.
Protocol: as §3

Bacillus cereus T = test: Minimal inhibitory concentration (agar); format: cell-based; conditions: 48 h, nutrient agar, pH 7.0, 2 days, 37° C.
Protocol: as §3

[11] = test system: Corynebacterium paurometabolum; test: Minimal inhibitory concentration (agar); format: cell-based; conditions: Tsukamurella paurometabola, 48 h; nutrient agar, pH 7.0, 2 days, 37° C.
Protocol: as §3

Proteus mirabilis = test: Minimal inhibitory concentration (agar); format: cell-based; conditions: 48 h, nutrient agar, pH 7.0, 2 days, 37° C.
Protocol: as §3

[12] = test system: Proteus vulgaris IFO 3167; test: Minimal inhibitory concentration (agar); format: cell-based; conditions: IFO3167, 48 h, nutrient agar, pH 7.0, 2 days, 37° C.
Protocol: as §3

[13] = test system: Pseudomonas aeruginosa P-3; test: Minimal inhibitory concentration (agar); format: cell-based; conditions: P3, 48 h, nutrient agar, pH 7.0, 2 days, 37° C.
Protocol: as §3

Shigella sonnei E 33 = test: Minimal inhibitory concentration (agar); format: cell-based; conditions: E33, 48 h, nutrient agar, pH 7.0, 2 days, 37° C.
Protocol: as §3

[14] = test system: Staphylococcus aureus FS 1227 (PC-R); test: Minimal inhibitory concentration (agar); format: cell-based; conditions: 48 h, nutrient agar, pH 7.0, 2 days, 37° C., penicillin resistant strain
Protocol: as §3

[15] = test system: Staphylococcus aureus KB 61 (R-TC, EM); test: Minimal inhibitory concentration (agar); format: cell-based; conditions: 48 h, pH 7
Protocol: as §3

[16] = test system: Staphylococcus aureus KB 64 (R-TC, EM); test: Minimal inhibitory concentration (agar); format: cell-based; conditions: 48 h, pH 7
Protocol: as §3

[17] = test system: Mycoplasma gallisepticum KP-13; test: Antimycoplasma activity, inhibition zone; format: cell-based; conditions: Eiken PPLO agar, pH 7.8, 8 days, 37° C.
Protocol: E Eiken PPLO agar (pH 7.8, 8 days, 37° C.)
(§7) Nanaomycin A and derivatives thereof according to the present invention are assayed in a similar manner to that designated as the paper disc method by Itoh, et al [J. of Antibiotics, 24, 855-859 (1971)], for example, as follows: […]

[18] = test system: Acholeplasma laidlawii (A); test: Antimycoplasma activity, inhibition zone; format: cell-based; conditions: Hokken PPLO agar, pH 7.8, 8 days, 37° C.
Protocol: H Hokken PPLO agar (pH 7.8, 8 days, 37° C.)
as §7

[19] = test system: mycoplasma, Gram-positive bacteria and tricophyton; test: Antimicrobial activity (in words); format: cell-based
[20] = test system: parasite of the genus Tricophyton; test: Therapeutic effect on infectious diseases in guinea pigs and cattle; format: in vivo
Protocol: When dermatomycosis of cattle caused by mass infection of Trichophyton verrucosum is treated with nanaomycin A, nanaomycin A is dissolved or suspended in a suitable carrier, for example, olive oil, and is coated on the affected part directly with or without removal of the scales. […] The results obtained by once-coating of nanaomycin A and by twice-coating (the second coating is carried out a week after the first coating) are shown in Tables 2 and 3, respectively.

Solubility = format: physicochemical

## COC(=O)CC1CC2=C(C(=O)c3c(O)cccc3C2=O)C(C)O1 (centres unmarked) [Nanaomycin A methyl ester, nanaomycin A methyl ester]
[1]
  MIC: 12.5 µg/mL (≈ 39.5 µM)
[2]
  MIC: 25 µg/mL (≈ 79 µM)
[3]
  MIC: > 100 µg/mL
Sarcina lutea PCI 1001
  MIC: 25 µg/mL (≈ 79 µM)
[4]
  MIC: 25 µg/mL (≈ 79 µM)
Salmonella typhimurium
  MIC: > 100 µg/mL
Candida albicans
  MIC: > 100 µg/mL
Trichophyton rubrum
  MIC: < 0.2 µg/mL
Trichophyton schoenleini
  MIC: < 0.2 µg/mL
Saccharomyces sake
  MIC: 50 µg/mL (≈ 158 µM)
[5]
  MIC: > 100 µg/mL
Piricularia oryzae
  MIC: 12.5 µg/mL (≈ 39.5 µM)
Microsporum gypseum 704
  MIC: 1.6 µg/mL (≈ 5.06 µM)
Trichophyton asteroides
  MIC: 12.5 µg/mL (≈ 39.5 µM)
Trichophyton ferrugineum
  MIC: 12.5 µg/mL (≈ 39.5 µM)
[6]
  MIC: 12.5 µg/mL (≈ 39.5 µM)
[7]
  MIC: 6.3 µg/mL (≈ 19.9 µM)
Trichophyton pedis 804
  MIC: 12.5 µg/mL (≈ 39.5 µM)
Trichophyton purpureum
  MIC: 12.5 µg/mL (≈ 39.5 µM)
Trichophyton roseum
  MIC: 0.8 µg/mL (≈ 2.53 µM)
Trichophyton violaceum
  MIC: 12.5 µg/mL (≈ 39.5 µM)
[8]
  MIC: 12.5 µg/mL (≈ 39.5 µM)
[9]
  MIC: 100 µg/mL (≈ 316 µM)
[10]
  MIC: > 100 µg/mL
Bacillus cereus T
  MIC: 25 µg/mL (≈ 79 µM)
[11]
  MIC: 25 µg/mL (≈ 79 µM)
Proteus mirabilis
  MIC: > 100 µg/mL
[12]
  MIC: > 100 µg/mL
[13]
  MIC: > 100 µg/mL
Shigella sonnei E 33
  MIC: > 100 µg/mL
[14]
  MIC: 25 µg/mL (≈ 79 µM)
[15]
  MIC: 12.5 µg/mL (≈ 39.5 µM)
[16]
  MIC: 12.5 µg/mL (≈ 39.5 µM)
[17]
  Inhibition Zone: 28.5 mm
[18]
  Inhibition Zone: none
[19]
  antimicrobial activity: generally lower than those of other derivatives of nanaomycin A
[20]
  therapeutic effect on Trichophyton infectious diseases: inferior to those of nanaomycin A and acetylnanaomycin A
Solubility; ether
  Solubility in ether: Soluble
Solubility; methanol, ethanol, ethylacetate, chloroform, acetone
  Solubility in methanol, ethanol, ethylacetate, chloroform and acetone: Soluble
Solubility; n-hexane, petroleum ether
  Solubility in n-hexane and petroleum ether: Insoluble
Solubility; water
  Solubility in water: Insoluble
